Data published in patent US20110071180A1, “SUB-TYPE SELECTIVE AMIDES OF DIAZABICYCLOALKANES” (Targacept, Inc., priority 2008, published 2011).
pKi: −log10 of the molar value. Read-outs that look alike come from different tables or passages of the source.

Columns and labels:
rat α4β2 nAChR subtype = target: T1, rat α4β2 nAChR subtype (Rattus norvegicus, UniProt P09483+P12390); assay: Radioligand binding, [3H]nicotine, rat cortex membranes; settings: [3H]nicotine 5 nM
T1 construct: The cerebral cortex was removed and placed in 20 volumes (weight:volume) of ice-cold preparative buffer; from tissue; host or cells: rat cerebral cortex membranes (female Sprague-Dawley)
T1 sequence (P09483 31-630): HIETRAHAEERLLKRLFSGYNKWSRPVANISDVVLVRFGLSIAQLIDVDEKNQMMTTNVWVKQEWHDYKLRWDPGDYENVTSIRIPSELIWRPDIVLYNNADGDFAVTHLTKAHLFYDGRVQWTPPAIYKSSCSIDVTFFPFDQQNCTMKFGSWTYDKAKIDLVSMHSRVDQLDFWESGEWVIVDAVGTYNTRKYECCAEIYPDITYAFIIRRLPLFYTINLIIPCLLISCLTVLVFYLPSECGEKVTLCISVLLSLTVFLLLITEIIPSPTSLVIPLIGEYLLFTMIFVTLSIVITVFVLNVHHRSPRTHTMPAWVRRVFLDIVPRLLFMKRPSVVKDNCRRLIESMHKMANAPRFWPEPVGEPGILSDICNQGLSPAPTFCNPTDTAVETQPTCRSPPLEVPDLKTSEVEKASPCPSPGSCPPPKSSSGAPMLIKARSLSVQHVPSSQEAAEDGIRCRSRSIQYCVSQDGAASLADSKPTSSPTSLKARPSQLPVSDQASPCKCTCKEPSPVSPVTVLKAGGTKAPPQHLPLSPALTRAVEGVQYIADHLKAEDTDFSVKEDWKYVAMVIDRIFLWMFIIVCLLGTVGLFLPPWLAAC
T1 sequence (P12390 25-500): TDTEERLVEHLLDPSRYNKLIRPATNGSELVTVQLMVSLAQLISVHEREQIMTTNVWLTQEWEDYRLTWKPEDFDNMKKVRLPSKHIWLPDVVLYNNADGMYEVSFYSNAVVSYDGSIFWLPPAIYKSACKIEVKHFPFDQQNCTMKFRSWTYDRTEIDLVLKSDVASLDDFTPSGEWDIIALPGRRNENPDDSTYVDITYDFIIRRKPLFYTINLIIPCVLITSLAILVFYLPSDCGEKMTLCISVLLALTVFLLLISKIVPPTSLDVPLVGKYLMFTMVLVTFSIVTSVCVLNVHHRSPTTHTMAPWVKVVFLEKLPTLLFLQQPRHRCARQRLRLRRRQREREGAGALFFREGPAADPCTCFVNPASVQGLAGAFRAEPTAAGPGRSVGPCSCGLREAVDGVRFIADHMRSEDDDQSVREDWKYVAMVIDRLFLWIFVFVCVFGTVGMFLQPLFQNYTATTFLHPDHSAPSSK
Procedure: Preparation of Membranes from Rat Cortex: Rats (Female, Sprague-Dawley), weighing 150-250 g, were maintained on a 12 h light/dark cycle and were allowed free access to water and food supplied by PMI Nutrition International, Inc. Animals were anesthetized with 70% CO2, and then decapitated. Brains were removed and placed on an ice-cold platform. The cerebral cortex was removed and placed in 20 volumes (weight:volume) of ice-cold preparative buffer (137 mM NaCl, 10.7 mM KCl, 5.8 mM KH2PO4, 8 mM Na2HPO4, 20 mM HEPES (free acid), 5 mM iodoacetamide, 1.6 mM EDTA, pH 7.4); PMSF, dissolved in methanol to a final concentration of 100 μM, was added and the suspension was homogenized by Polytron. The homogenate was centrifuged at 18,000×g for 20 min at 4° C. and the resulting pellet was re-suspended in 20 volumes of ice-cold water. After 60 min incubation on ice, a new pellet was collected by centrifugation at 18,000×g for 20 min at 4° C. The final pellet was re-suspended in 10 volumes of buffer and stored at −20° C.
(§1) On the day of the assay, the frozen membranes were thawed and spun at 48,000×g for 20 min. The supernatant was decanted and discarded. The pellet was resuspended in Dulbecco's phosphate buffered saline (PBS, Life Technologies) pH 7.4 and homogenized with the Polytron for 6 seconds. Protein concentrations were determined using a Pierce BCA Protein Assay Kit, with bovine serum albumin as the standard (Pierce Chemical Company, Rockford, Ill.).
(§2) Membrane preparations (approximately 50 μg for human and 200-300 μg protein for rat α4β2) were incubated in PBS (50 μL and 100 μL respectively) in the presence of competitor compound (0.01 nM to 100 μM) and 5 nM [^3H]nicotine for 2-3 hours on ice. Incubation was terminated by rapid filtration on a multi-manifold tissue harvester (Brandel, Gaithersburg, Md.) using GF/B filters presoaked in 0.33% polyethyleneimine (w/v) to reduce non-specific binding. Tissue was rinsed 3 times in PBS, pH 7.4. Scintillation fluid was added to filters containing the washed tissue and allowed to equilibrate. Filters were then counted to determine radioactivity bound to the membranes by liquid scintillation counting (2200CA Tri-Carb LSC, Packard Instruments, 50% efficiency or Wallac Trilux 1450 MicroBeta, 40% efficiency, Perkin Elmer).
(§3) Data were expressed as disintegrations per minute (DPMs). Within each assay, each point had 2-3 replicates. The replicates for each point were averaged and plotted against the log of the drug concentration. IC50, which is the concentration of the compound that produces 50% inhibition of binding, was determined by least squares non-linear regression. Ki values were calculated using the Cheng-Prussof equation (1973): […]

human α4β2 nAChR subtype = target: T2, human α4β2 nAChR subtype (Homo sapiens, UniProt P17787+P43681); assay: Radioligand binding, [3H]nicotine, membranes from SH-EP1/human α4β2 clonal cells; settings: [3H]nicotine 5 nM, SH-EP1/human α4β2 cell membranes
T2 construct: expressed in transfected cells; host or cells: SH-EP1 clonal cells expressing human α4β2
T2 sequence (P43681 29-627 limits assumed): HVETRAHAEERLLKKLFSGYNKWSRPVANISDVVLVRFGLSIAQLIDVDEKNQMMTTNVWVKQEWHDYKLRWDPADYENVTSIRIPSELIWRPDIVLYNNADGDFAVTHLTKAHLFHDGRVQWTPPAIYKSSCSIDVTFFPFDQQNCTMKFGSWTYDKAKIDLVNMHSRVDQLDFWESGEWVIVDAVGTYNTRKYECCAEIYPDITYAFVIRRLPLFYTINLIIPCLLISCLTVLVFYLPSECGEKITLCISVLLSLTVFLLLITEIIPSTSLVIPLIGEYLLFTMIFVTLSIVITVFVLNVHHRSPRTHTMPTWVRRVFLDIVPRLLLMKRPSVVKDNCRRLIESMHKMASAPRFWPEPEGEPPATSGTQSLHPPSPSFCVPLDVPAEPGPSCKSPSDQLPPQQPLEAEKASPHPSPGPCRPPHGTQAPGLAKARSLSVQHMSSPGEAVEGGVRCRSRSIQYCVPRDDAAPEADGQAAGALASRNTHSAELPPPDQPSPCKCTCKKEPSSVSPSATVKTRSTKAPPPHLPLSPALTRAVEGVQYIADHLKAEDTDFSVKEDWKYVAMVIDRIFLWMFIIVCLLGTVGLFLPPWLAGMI
T2 sequence (P17787 26-502): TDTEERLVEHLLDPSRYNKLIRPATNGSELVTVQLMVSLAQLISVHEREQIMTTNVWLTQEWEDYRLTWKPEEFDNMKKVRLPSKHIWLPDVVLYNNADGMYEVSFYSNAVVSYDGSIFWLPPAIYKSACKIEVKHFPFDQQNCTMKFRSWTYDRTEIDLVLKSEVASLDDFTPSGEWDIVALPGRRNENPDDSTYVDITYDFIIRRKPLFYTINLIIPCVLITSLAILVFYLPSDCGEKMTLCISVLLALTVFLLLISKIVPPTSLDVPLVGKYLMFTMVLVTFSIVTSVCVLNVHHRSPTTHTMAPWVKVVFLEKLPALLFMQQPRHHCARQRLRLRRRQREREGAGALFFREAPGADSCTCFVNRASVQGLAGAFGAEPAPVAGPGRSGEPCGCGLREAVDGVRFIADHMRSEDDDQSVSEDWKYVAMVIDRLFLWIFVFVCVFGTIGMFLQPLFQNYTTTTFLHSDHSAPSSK
Procedure: Preparation of membranes from SH-EP1/human α4β2 clonal cells: Cell pellets from 40 150 mm culture dishes were pooled, and homogenized by Polytron (Kinematica GmbH, Switzerland) in 20 milliliters of ice-cold preparative buffer. The homogenate was centrifuged at 48,000 g for 20 minutes at 4° C. The resulting pellet was re-suspended in 20 mL of ice-cold preparative buffer and stored at −20° C.
as §1, §2, §3

α7 nAChR subtype = target: T3, α7 nAChR subtype (Rattus norvegicus, UniProt Q05941); assay: Radioligand binding, [3H]MLA, rat hippocampus membranes; settings: for inhibition at 5 µM: read-out: α7 high through-put screening (HTS) result
T3 construct: The hippocampus was removed and placed in 10 volumes (weight:volume) of ice-cold preparative buffer; from tissue; host or cells: rat hippocampus membranes (female Sprague-Dawley)
T3 sequence (Q05941 23-502): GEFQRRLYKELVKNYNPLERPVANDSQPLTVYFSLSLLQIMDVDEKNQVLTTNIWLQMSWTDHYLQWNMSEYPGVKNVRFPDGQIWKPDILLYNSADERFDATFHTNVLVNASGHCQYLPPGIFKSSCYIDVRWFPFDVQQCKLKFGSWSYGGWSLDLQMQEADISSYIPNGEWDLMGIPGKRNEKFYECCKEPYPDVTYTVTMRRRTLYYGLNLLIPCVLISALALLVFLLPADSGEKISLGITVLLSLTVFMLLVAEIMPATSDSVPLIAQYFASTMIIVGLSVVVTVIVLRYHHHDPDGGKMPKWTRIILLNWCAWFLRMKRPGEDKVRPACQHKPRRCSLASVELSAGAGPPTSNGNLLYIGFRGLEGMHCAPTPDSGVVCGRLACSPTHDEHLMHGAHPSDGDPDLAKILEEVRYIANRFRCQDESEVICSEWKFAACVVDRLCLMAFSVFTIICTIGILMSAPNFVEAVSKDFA
Procedure: Rats (female, Sprague-Dawley), weighing 150-250 g, were maintained on a 12 h light/dark cycle and were allowed free access to water and food supplied by PMI Nutrition International, Inc. Animals were anesthetized with 70% CO2, then decapitated. Brains were removed and placed on an ice-cold platform. The hippocampus was removed and placed in 10 volumes (weight:volume) of ice-cold preparative buffer (137 mM NaCl, 10.7 mM KCl, 5.8 mM KH2PO4, 8 mM Na2HPO4, 20 mM HEPES (free acid), 5 mM iodoacetamide, 1.6 mM EDTA, pH 7.4); PMSF, dissolved in methanol to a final concentration of 100 μM, was added and the tissue suspension was homogenized by Polytron. The homogenate was centrifuged at 18,000×g for 20 min at 4° C. and the resulting pellet was re-suspended in 10 volumes of ice-cold water. After 60 min incubation on ice, a new pellet was collected by centrifugation at 18,000×g for 20 min at 4° C. The final pellet was re-suspended in 10 volumes of buffer and stored at −20° C. On the day of the assay, tissue was thawed, centrifuged at 18,000×g for 20 min, and then re-suspended in ice-cold PBS (Dulbecco's Phosphate Buffered Saline, 138 mM NaCl, 2.67 mM KCl, 1.47 mM KH2PO4, 8.1 mM Na2HPO4, 0.9 mM CaCl2, 0.5 mM MgCl2, Invitrogen/Gibco, pH 7.4) to a final concentration of approximately 2 mg protein/mL. Protein was determined by the method of Lowry et al., J. Biol. Chem. 193: 265 (1951), using bovine serum albumin as the standard.
The binding of [^3H]MLA was measured using a modification of the methods of Davies et al., Neuropharmacol. 38: 679 (1999). [^3H]MLA (Specific Activity=25-35 Ci/mmol) was obtained from Tocris. The binding of [^3H]MLA was determined using a 2 h incubation at 21° C. Incubations were conducted in 48-well micro-titre plates and contained about 200 μg of protein per well in a final incubation volume of 300 μL. The incubation buffer was PBS and the final concentration of [^3H]MLA was 5 nM. The binding reaction was terminated by filtration of the protein containing bound ligand onto glass fiber filters (GF/B, Brandel) using a Brandel Tissue Harvester at room temperature. Filters were soaked in de-ionized water containing 0.33% polyethyleneimine to reduce non-specific binding. Each filter was washed with PBS (3×1 mL) at room temperature. Non-specific binding was determined by inclusion of 50 μM non-radioactive MLA in selected wells.
The inhibition of [^3H]MLA binding by test compounds was determined by including seven different concentrations of the test compound in selected wells. Each concentration was replicated in triplicate. IC50 values were estimated as the concentration of compound that inhibited 50 percent of specific [^3H]MLA binding. Inhibition constants (Ki values), reported in nM, were calculated from the IC50 values using the method of Cheng et al., Biochem. Pharmacol. 22: 3099-3108 (1973).

[1] = [3H]MLA 5 nM, rat hippocampus membranes, read-out: α7 Ki

SMILES	pKi (rat α4β2 nAChR subtype)	pKi (human α4β2 nAChR subtype)	pKi (α7 nAChR subtype; [1])	inhibition at 5 µM (α7 nAChR subtype) [%]	pKi (α7 nAChR subtype; α7 Ki)
O=C(C1CC1)N1CC2CNCC(C2)C1 [Example 10-56]	8.55	9.40	7.02	–	–
CC(C)(C)C(=O)N1CC2CNCC(C2)C1 [Example 10-57]	6.95	6.90	–	< 50	–
O=C(C1=CCCC1)N1CC2CNCC(C2)C1 [Example 10-58]	6.75	6.33	–	< 50	–
O=C(C(F)F)N1CC2CNCC(C2)C1 [Example 10-59]	8.77	7.61	6.53	–	–
CC(C)=CC(=O)N1CC2CNCC(C2)C1 [Example 10-60]	7.59	7.86	–	< 50	–
COCC(=O)N1CC2CNCC(C2)C1 [Example 10-61]	7.30	7.41	5.83	–	–
COCCC(=O)N1CC2CNCC(C2)C1 [Example 10-62]	6.76	6.90	–	< 50	–
CCC(=O)N1CC2CNCC(C2)C1 [Example 10-63]	7.92	7.98	6.10	–	–
C/C=C/CC(=O)N1CC2CNCC(C2)C1 [Example 10-66]	7.52	7.78	–	< 50	–
CCCC(=O)N1CC2CNCC(C2)C1 [Example 10-67]	8.09	8.54	6.64	–	–
O=C(C1CC1(F)F)N1CC2CNCC(C2)C1 (stereo not drawn) [Example 10-68]	8.92	8.96	6.85	–	–
CC1(C)CC1C(=O)N1CC2CNCC(C2)C1 (stereo not drawn) [Example 10-69]	8.82	9.00	6.42	–	–
CC1(C(=O)N2CC3CNCC(C3)C2)CC1 [Example 10-70]	6.06	6.67	–	< 50	–
CC1CC1C(=O)N1CC2CNCC(C2)C1 (stereo not drawn) [Example 10-71]	8.85	9.00	7.10	–	–
O=C(N1CC2CNCC(C2)C1)C1(O)CC1 [Example 10-72]	7.12	6.65	–	< 50	–
CC1(C)C(C(=O)N2CC3CNCC(C3)C2)C1(C)C [Example 10-73]	6.92	7.55	–	< 50	–
N#CC1(C(=O)N2CC3CNCC(C3)C2)CC1 [Example 10-74]	5.31	5.87	–	< 50	–
O=C(C1CCC1)N1CC2CNCC(C2)C1 [Example 10-75]	8.80	8.85	7.15	–	–
O=C(C1CC12CCC2)N1CC2CNCC(C2)C1 (stereo not drawn) [Example 10-76]	8.80	8.96	6.17	–	–
O=C(C1CC=CC1)N1CC2CNCC(C2)C1 [Example 10-77]	7.59	7.90	7.27	–	–
O=C([C@H]1C[C@H]1F)N1CC2CNCC(C2)C1 [Example 10-78]	8.54	8.77	–	–	6.40
O=C([C@H]1C[C@@H]1F)N1CC2CNCC(C2)C1 [Example 10-79]	8.39	8.70	–	–	6.02
O=C(CCF)N1CC2CNCC(C2)C1 [Example 10-80]	7.86	8.02	–	< 50	–
CC(C)C(=O)N1CC2CNCC(C2)C1 [Example 10-81]	6.99	7.35	6.19	–	–
O=C(C1CC(F)C1)N1CC2CNCC(C2)C1 (stereo not drawn) [Example 10-82]	8.85	8.54	5.98	–	–
O=C(CC1CC1)N1CC2CNCC(C2)C1 [Example 10-83]	7.88	7.47	–	< 50	–
O=C(CS(=O)(=O)c1ccccc1)N1CC2CNCC(C2)C1 [Example 10-84]	6.02	6.22	–	< 50	–
CS(=O)(=O)CC(=O)N1CC2CNCC(C2)C1 [Example 10-85]	6.72	6.88	–	< 50	–
O=C(C1CCCC1)N1CC2CNCC(C2)C1 [Example 10-86]	7.58	7.69	6.68	–	–
O=C([C@H]1C[C@@H]1F)N1CC2CNCC(C2)C1 [Example 10-87]	7.94	8.28	–	–	6.23
